Measurements reported in patent publication US20250177381A1 (SHANGHAI YONSUN BIOTECHNOLOGY CO., LTD., priority 2022, published 2025).
≈ marks a conversion by molar mass, not a printed value. Counter-ions that a name gives are not always drawn. Like-named read-outs stand apart in the source and are kept apart here. One block for each compound: values may come before it.

Assays:
Format in all cases: physicochemical
[1] = Crystal form stability of solid salt forms (XRPD); details: 60° C., Day 10, listed as crystal form A of cariprazine mono-1-hydroxy-2-naphthoate dihydrate
Method: (4) The XRPD measurements were conducted on a Bruker model D8 Advance X-ray powder diffractometer using a round zero background single crystal silicon sample stage. CuKα rays were used as a light source in the test, and the scanning parameters are as follows: voltage: 40 kv; current: 40 mA; scanning range: 3°-45°; scanning step size: 0.02°; scanning mode: continuous scanning.

[2] = Solubility in media with different pH values; details: shaken 24 h; for Solubility pH 3 / Solubility pH 4 / Solubility pH 5 / Solubility pH 6: acetate buffer; for Solubility pH 3 / Solubility pH 4 / Solubility pH 5 / Solubility pH 6 / Solubility pH 7 / Solubility pH 7.4 / Solubility pH 8 / Solubility pH 9 / Solubility Water: 37° C.; for Solubility pH 7 / Solubility pH 7.4 / Solubility pH 8 / Solubility pH 9 / solubility at 24 h: phosphate buffer; for solubility at 24 h: 37 °C, thermodynamic from solid
Method: The mixtures were shaken at 37° C. for 24 h and filtered through a 0.45 μm aqueous-phase filter membranes. The filtrates were collected for solubility determination by high performance liquid chromatography. pH 3, pH 4, pH5 and pH 6 represent acetate buffer solutions, and pH 7, pH 7.4, pH 8 and pH 9 represent phosphate buffer solutions.

[3] = Hydrochloride dissociation study (XRPD of residues); details: aqueous media of pH 6, pH 7, pH 7.4, pH 8, pH 9; shaken at 37° C. for 4 h
Method: The mixtures were shaken at 37° C. for 4 h and centrifuged.

[4] = listed as Crystal form A of cariprazine mono-1-hydroxy-2-naphthoate dihydrate (Example 1), dihydrate
[5] = listed as Crystal form A of cariprazine bis-1-hydroxy-2-naphthoate hydrate (Example 5), hydrate
[6] = listed as Amorphous cariprazine embonate (Example 7)

Solubility pH 3 [2, 4]: 166.74 μg/mL
Solubility pH 4 [2, 4]: 72.47 μg/mL
Solubility pH 5 [2, 4]: 72.69 μg/mL
Solubility pH 6 [2, 4]: 41.95 μg/mL
Solubility pH 7 [2, 4]: 5.02 μg/mL
Solubility pH 7.4 [2, 4]: 1.51 μg/mL
Solubility pH 8 [2, 4]: 0.62 μg/mL
Solubility pH 9 [2, 4]: 0.45 μg/mL
Solubility Water [2, 4]: 60.01 µg/mL
SMILES: CN(C)C(=O)NC1CCC(CCN2CCN(c3cccc(Cl)c3Cl)CC2)CC1 (centres unmarked) [cariprazine mono-1-hydroxy-2-naphthoate dihydrate]
Crystal form results, High temperature [1]: change into the crystal form C of cariprazine mono-1-hydroxy-2-naphthoate

Solubility pH 3 [2, 5]: 36.75 μg/mL
Solubility pH 4 [2, 5]: 65.87 μg/mL
Solubility pH 5 [2, 5]: 20.69 μg/mL
Solubility pH 6 [2, 5]: 15.24 μg/mL
Solubility pH 7 [2, 5]: 6.13 μg/mL
Solubility pH 7.4 [2, 5]: 3.00 μg/mL
Solubility pH 8 [2, 5]: 1.14 μg/mL
Solubility pH 9 [2, 5]: 0.94 μg/mL
Solubility Water [2, 5]: 55.20 µg/mL
SMILES: CN(C)C(=O)NC1CCC(CCN2CCN(c3cccc(Cl)c3Cl)CC2)CC1 (centres unmarked) [cariprazine bis-1-hydroxy-2-naphthoate hydrate]

Dissociation in aqueous media (XRPD of residue) [3]: dissociated into cariprazine free base
Solubility pH 3 [2]: 12302.45 μg/mL
Solubility pH 5 [2]: 1081.35 μg/mL
solubility at 24 h ([2]; pH 7, aqueous buffer, read-out: Solubility pH 7): 9.41 µg/mL
solubility at 24 h ([2]; pH 7.4, aqueous buffer, read-out: Solubility pH 7.4): 2.82 µg/mL
solubility at 24 h ([2]; pH 8, aqueous buffer, read-out: Solubility pH 8): 0.91 µg/mL
solubility at 24 h ([2]; pH 9, aqueous buffer, read-out: Solubility pH 9): 0.35 µg/mL
Solubility Water [2]: 10935.14 µg/mL
SMILES: CN(C)C(=O)N[C@H]1CC[C@H](CCN2CCN(c3cccc(Cl)c3Cl)CC2)CC1 [cariprazine hydrochloride, reference compound]

Solubility pH 3 [2, 6]: 151.2 μg/mL
Solubility pH 4 [2, 6]: 19.1 μg/mL
Solubility pH 5 [2, 6]: 17.7 μg/mL
Solubility pH 6 [2, 6]: 19.0 μg/mL
Solubility pH 7 [2, 6]: 18.8 μg/mL
Solubility pH 7.4 [2, 6]: 9.9 μg/mL
Solubility pH 8 [2, 6]: 4.6 μg/mL
Solubility pH 9 [2, 6]: 4.2 μg/mL
Solubility Water [2, 6]: 10.4 µg/mL (≈ 24.3 µM)
SMILES: CN(C)C(=O)NC1CCC(CCN2CCN(c3cccc(Cl)c3Cl)CC2)CC1 (centres unmarked) [Amorphous cariprazine embonate, cariprazine embonate]

Solubility pH 3 [2]: 102.65 μg/mL
Solubility pH 4 [2]: 82.64 μg/mL
Solubility pH 5 [2]: 81.47 μg/mL
Solubility pH 6 [2]: 36.38 μg/mL
Solubility pH 7 [2]: 4.79 μg/mL
Solubility pH 7.4 [2]: 1.53 μg/mL
Solubility pH 8 [2]: 0.51 μg/mL
Solubility pH 9 [2]: 0.31 μg/mL
Solubility Water [2]: 65.28 µg/mL (≈ 153 µM)
SMILES: CN(C)C(=O)NC1CCC(CCN2CCN(c3cccc(Cl)c3Cl)CC2)CC1 (centres unmarked) [Crystal form C of cariprazine mono-1-hydroxy-2-naphthoate (E]

Solubility pH 8 [2]: 0.4 μg/mL
Solubility Water [2]: 179.94 µg/mL (≈ 421 µM)
SMILES: CN(C)C(=O)NC1CCC(CCN2CCN(c3cccc(Cl)c3Cl)CC2)CC1 (centres unmarked) [Cariprazine (commercially available), Cariprazine, reference compound]
